According to EP0213526A1, “Spergualin-related compounds, a process for their preparation and their use as medicaments” (MICROBIAL CHEMISTRY RESEARCH FOUNDATION, priority 1985, dated 1987):

Columns and labels:
[1] = test system: mouse leukemia L-1210; test: Therapeutic effects on cancer in mice (life prolongation, mouse leukemia L-1210); type: in vivo; conditions: 6 consecutive days, male BDF1 mice; for Percent life pro-longation: 10^5 L-1210 cells i.p., T/C x 100; for Percent survival for 30 days: groups of four, L-1210
Experimental: Male BDF1 mice (5-wk old) in groups comprising four heads were inoculated intraperitoneally with 10^5 cells of mouse leukemia L-1210. Starting on the day of inoculation, a selected sample dissolved in a physiological saline solution was administered intraperitoneally to each animal for 6 consecutive days on a one-dose-per-day basis. After keeping the animals for 30 days, the life-prolongation effect of sample was determined form the following formula:
Life-prolongation effect = T/C x 100 = (Average number of days of survival of the treated group / Average number of days of survival of the control group) x 100.

[2] = test system: Ehrlich cancer; conditions: healing experiments, from Japanese Patent Public Disclosure No. 48975/1982; cited from earlier work
[3] = test system: mouse leukemia L-1210; conditions: healing experiments, from Japanese Patent Public Disclosure No. 48975/1982; cited from earlier work
[4] = test system: Gram-negative microorganisms; conditions: background statement; cited from earlier work
[5] = test system: sarcoma 180 (S-180); conditions: healing experiments, from Japanese Patent Public Disclosure No. 48975/1982; cited from earlier work
[6] = test system: Gram-positive microorganisms; conditions: background statement; cited from earlier work
[7] = test system: mouse leukemia FL-4; conditions: healing experiments, from Japanese Patent Public Disclosure No. 48975/1982; cited from earlier work
[8] = Dose 0.20 mg/kg/day intraperitoneally
[9] = Dose 0.39 mg/kg/day intraperitoneally
[10] = Dose 0.78 mg/kg/day intraperitoneally
[11] = Dose 1.56 mg/kg/day intraperitoneally
[12] = Dose 3.13 mg/kg/day intraperitoneally
[13] = Dose 6.25 mg/kg/day intraperitoneally
[14] = Dose 12.5 mg/kg/day intraperitoneally
[15] = Dose 25 mg/kg/day intraperitoneally
[16] = Dose 50 mg/kg/day intraperitoneally

Compound	Percent life pro-longation [1, 8]	Percent survival for 30 days [1, 8]	Percent life pro-longation [1, 9]	Percent survival for 30 days [1, 9]	Percent life pro-longation [1, 10]	Percent survival for 30 days [1, 10]	Percent life pro-longation [1, 11]	Percent survival for 30 days [1, 11]	Percent life pro-longation [1, 12]	Percent survival for 30 days [1, 12]	Percent life pro-longation [1, 13]	Percent survival for 30 days [1, 13]	Percent life pro-longation [1, 14]	Percent survival for 30 days [1, 14]	Percent life pro-longation [1, 15]	Percent survival for 30 days [1, 15]	Percent life pro-longation [1, 16]	Percent survival for 30 days [1, 16]	also measured
N=C(N)Nc1ccc(CCCC(=O)NC(O)C(=O)NCCCCNCCCN)cc1 (racemic) [Compound 1, 10-{N-[4-(4-guanidinophenyl)butanoyl]-α-hydroxyglycyl}-1,5,10-triazadecane]	110%	0/4	120%	0/4	155%	0/4	197%	0/4	> 335%	2/4	> 363%	2/4	> 401%	3/4	> 356%	2/4	0%	0/4	–
COC(NC(=O)CCCc1ccc(NC(=N)N)cc1)C(=O)NCCCCNCCCN (racemic) [Compound 2, 10-{N-[4-(4-guanidinophenyl)butanoyl]-α-methoxyglycyl}-1,5,10-triazadecane]	104%	0/4	111%	0/4	118%	0/4	171%	0/4	> 368%	3/4	> 403%	3/4	> 417%	4/4	> 417%	4/4	0%	0/4	–
N=C(N)NCCCC[C@H](O)CC(=O)NC(O)C(=O)NCCCCNCCCN (stereo partly drawn) [Spergualin]	–	–	–	–	–	–	–	–	–	–	–	–	–	–	–	–	–	–	therapeutic and life-prolonging effects [2]: appreciable therapeutic and life-prolonging effects; therapeutic and life-prolonging effects [3]: appreciable therapeutic and life-prolonging effects; effect of inhibiting the growth [4]: inhibiting the growth; therapeutic and life-prolonging effects [5]: appreciable therapeutic and life-prolonging effects; effect of inhibiting the growth [6]: inhibiting the growth; therapeutic and life-prolonging effects [7]: appreciable therapeutic and life-prolonging effects
